For one molecule, solubility results are on record in US20150306090A1, “ORALLY ADMINISTERED MEDICAL COMPOSITION” (ASTELLAS PHARMA INC., priority 2012, published 2015).

In brackets after ≈: the same amount, converted by molar mass.

The data set is described as follows: physchem. It is filed as physicochemical. From the text:
Further, the current product (Vesicare (registered trademark)) has been placed on the market, as a drug-immediate-release formulation. Furthermore, although the active ingredient is not the same, a bi-layered tablet comprising a modified release portion containing tamsulosin or a pharmaceutically acceptable salt thereof, and an immediate release portion containing solifenacin or a pharmaceutically acceptable salt thereof, is known (Patent literature 7).

In turn, `O=C(O[C@H]1CN2CCC1CC2)N1CCc2ccccc2[C@@H]1c1ccccc1` [solifenacin, (R)-quinuclidin-3-yl (S)-1-phenyl-1,2,3,4-tetrahydroisoquinoline-2-carboxylate] gave a solubility (pH 6.8, aqueous buffer) of 430 mg/mL (≈ 1190 mM) and a solubility (water) of 610 mg/mL (≈ 1680 mM).

A word on the solubility: it is the dissolved amount per volume that the medium holds. Read a low solubility as little dissolved substance.
